# Assay results as given in US5756145A, “Durable, Resilient and effective antimicrobial coating for medical devices and method of coating therefor” (priority 1995, dated 1998).
# Structures can show the parent of a compound that is named as a salt.
# Legend:
# [1] = test system: bacterial and fungal organisms; conditions: cited from earlier work; for spectrum of antimicrobial activity / bacteriostatic/bactericidal nature: general statement; for effect of organic matter on effectiveness: organic matter such as blood
# protein synthesis = conditions: general statement; cited from earlier work
# [2] = test system: bacterial DNA-dependent RNA polymerase; conditions: general statement; cited from earlier work
# Candida albicans [3] = assay: zones of inhibition on agar plates, Candida albicans (Examples 1, 2, 5, 7); conditions: Init., triple layer, Table 7
# Protocol: (§1) Selected single layer and triple layer coated cylinders were then placed on agar plates that had been freshly overlaid with one of the microorganisms shown below in Table 1.
# (§2) The coated cylinders were then removed from the serum and placed on agar plates that had been freshly overlaid with one of the microorganisms shown below in Table 2.
# (§3) The devices and coating solution were preheated to 45° C. After coating the devices were allowed to dry for about four hours. […] The devices were then allowed to dry for an additional two hours. The resilient coated layer was applied over the durable coated layer by dipping the devices for approximately 5-10 seconds in a collodion solution. The devices were then allowed to dry for an additional two hours. Selected coated devices were then incubated in human serum at 37° C. for one and three weeks.
# Pseud. aeruginosa = assay: zones of inhibition on agar plates, Pseud. aeruginosa (Examples 1, 2, 5, 7); conditions: P. aerug, Init., triple layer, Table 7
# Protocol: as §1, §2, §3
# Staph. epidermidis = assay: zones of inhibition on agar plates, Staph. epidermidis (Examples 1, 2, 5, 7); conditions: S. epidermidis, Init., triple layer, Table 7
# Protocol: as §1, §2, §3
# Staphylococcus aureus = conditions: cited from earlier work
# Escherichia coli = conditions: cited from earlier work
# Pseudomonas aeruginosa = conditions: cited from earlier work
# Candida albicans [4] = conditions: cited from earlier work
# [5] = light; cited from earlier work
# [6] = cited from earlier work; for solubility in organic solvents: organic solvents/solutions
smiles,measurement,setting,value
CC[C@H]1OC(=O)[C@H](C)[C@@H](O[C@H]2C[C@@](C)(OC)[C@@H](O)[C@H](C)O2)[C@H](C)[C@@H](O[C@@H]2O[C@H](C)C[C@H](N(C)C)[C@H]2O)[C@](C)(O)C[C@@H](C)C(=O)[C@H](C)[C@@H](O)[C@]1(C)O [Erythromycin],spectrum of antimicrobial activity,[1],active against a variety of gram-positive and gram-negative bacteria
same,inhibition of protein synthesis,protein synthesis,inhibition of protein synthesis without affecting nucleic acid synthesis
"CC1=CCC(C(C)(C)O)CC1 (stereo not drawn) [α-Terpineol, α-α-4-trimethyl-3-cyclohexine-1-methanol]",bacteriostatic/bactericidal nature,[1],bacteriostatic
same,spectrum of antimicrobial activity,[1],"broad spectrum antimicrobial activity against gram-positive bacteria (such as staphylococci and Enterococcus species), gram-negative bacteria (such as Escherichia coli and Pseudomonas aeruginosa) and Candida species"
"Cc1ccc(C(C)C)c(O)c1 [Thymol, 5-methyl-2 isopropyl phenol]",bacteriostatic/bactericidal nature,[1],bacteriostatic
same,spectrum of antimicrobial activity,[1],"broad spectrum antimicrobial activity against gram-positive bacteria (such as staphylococci and Enterococcus species), gram-negative bacteria (such as Escherichia coli and Pseudomonas aeruginosa) and Candida species"
CO[C@H]1/C=C/O[C@@]2(C)Oc3c(C)c(O)c4c(O)c(c(/C=N/N5CCN(C)CC5)c(O)c4c3C2=O)NC(=O)/C(C)=C\C=C\[C@H](C)[C@H](O)[C@@H](C)[C@@H](O)[C@@H](C)[C@H](OC(C)=O)[C@@H]1C [Rifampin],bacteriostatic/bactericidal nature,[1],bactericidal
same,spectrum of antimicrobial activity,[1],broad spectrum activity against a wide range of gram-positive and gram-negative bacteria
same,inhibition of bacterial DNA-dependent RNA polymerase,[2],inhibits bacterial DNA-dependent RNA polymerase activity
[H]/N=C(\N/C(=N/[H])NCCCCCCNC(=N)NC(=N)Nc1ccc(Cl)cc1)Nc1ccc(Cl)cc1 [Chlorhexidine],bacteriostatic/bactericidal nature,[1],very rapid bactericidal activity
same,spectrum of antimicrobial activity,[1],"broad range of microorganisms, including gram-positive bacteria (such as staphylococci, Enterococcus species), gram-negative bacteria (such as Escherichia coli and Pseudomonas aeruginosa) and Candida species"
same,effect of organic matter on effectiveness,[1],not affected by the presence of organic matter
same,Zones of inhibition,Candida albicans [3],26 m.m.
same,Zones of inhibition,Pseud. aeruginosa,20 m.m.
same,Zones of inhibition,Staph. epidermidis,22 m.m.
"Cn1sccc1=O [Methylisothiazolone, 2-Methylisothiazolone Hydrochloride]",MIC,Staphylococcus aureus,80 µg/mL
same,MIC,Escherichia coli,40 µg/mL
same,MIC,Pseudomonas aeruginosa,80 µg/mL
same,MIC,Candida albicans [4],320 µg/mL
same,bacteriostatic/bactericidal nature,[1],bacteriostatic
same,spectrum of antimicrobial activity,[1],broad spectrum antimicrobial activity
same,photosensitivity,[5],photosensitive
same,solubility in acetic acid,[6]; acetic acid (rifampin: acetic aqueous solutions),not soluble
same,solubility in formic acid,[6]; formic acid,soluble
same,solubility in organic solvents,[6],soluble
CCOc1ccc2ccccc2c1C(=O)N[C@@H]1C(=O)N2[C@@H]1SC(C)(C)[C@@H]2C(=O)O [Nafcillin],spectrum of antimicrobial activity,[1],"effective against both penicillin-G-sensitive and penicillin-G-resistant strains of Staphylococcus aureus as well as against pneumococcus, beta-hemolytic streptococcus, and alpha streptococcus"
CN(C)c1ccc(O)c2c1C[C@H]1C[C@H]3[C@H](N(C)C)C(O)=C(C(N)=O)C(=O)[C@@]3(O)C(O)=C1C2=O [Minocycline],bacteriostatic/bactericidal nature,[1],primarily bacteriostatic
same,spectrum of antimicrobial activity,[1],active against a wide range of gram-negative and gram-positive organisms
same,inhibition of protein synthesis,protein synthesis,inhibiting protein synthesis
Oc1c(Cl)cc(Cl)c(Cl)c1Cc1c(O)c(Cl)cc(Cl)c1Cl [Hexachlorophene],bacteriostatic/bactericidal nature,[1],bacteriostatic
same,spectrum of antimicrobial activity,[1],active against staphylococci and other gram-positive bacteria
same,solubility in organic solvents,[6],soluble
same,solubility in water,[6]; water,soluble
"Cc1cc(O)cc(C)c1Cl [Chloroxylenol, 4-chloro, 3,5-dimethyl phenol]",spectrum of antimicrobial activity,[1],"good antimicrobial activity against gram-positive bacteria and fungi, and fair activity against gram-negative bacteria"
same,effect of organic matter on effectiveness,[1],minimally affected by organic matter
same,Zones of inhibition,Candida albicans [3],28 m.m.
same,Zones of inhibition,Pseud. aeruginosa,13 m.m.
same,Zones of inhibition,Staph. epidermidis,32 m.m.
